The test system of one data set is HSV-1. Briefly: Plaque assay of HSV-1 infected HCEs treated with ER stress modulators. Conditions: 0.1 MOI HSV-1 K26RFP, 24 hpi, tunicamycin, thapsigargin, Brefeldin-A 1 μM, salubrinal 75 μM, PBA 10 mM.
The conditions of data set [1]: in vivo, iv; cited from earlier work.
In another data set the test system is HSV-1 McKrae. Put plainly: Murine HSV-1 encephalitis model (intranasal infection). The settings on record: BALB/C mice, intranasal HSV-1 McKrae, compared with untreated. The format is in vivo.
The conditions of data set [2]: in vivo; cited from earlier work.
The next data set relates to HSV. Put plainly: Viral protein synthesis in HSV infected cells (immunoblotting). Conditions: in vitro. (Immunoblotting shows a protein as a band on a membrane.)
Another data set has as its system HSV-1 infected HCEs. Briefly: Survival and syncytia of HSV-1 infected HCEs in cell culture. The format is cell-based, human.

Entries after “also recorded” stand apart in the source; their conditions may differ.

On to `C[C@H]1CCC/C=C/[C@@H]2C[C@H](O)C[C@H]2[C@H](O)/C=C/C(=O)O1` [BA, Brefeldin-A], for which, in the data set on HSV-1, the “viral replication / viral infection in HSV-1 infected HCEs” value (“viral replication / viral infection” below) is listed as “inhibited viral replication”. As to `Nc1nc2c(ncn2COCCO)c(=O)[nH]1` [ACV, acyclovir], the renal toxicity entry in data set [1] was “renal toxicity including acute kidney injury”. Further, the “appearance and behavior of infected mice” value with HSV-1 McKrae is given as “look healthier with no behavioral changes”. Tunicamycin [TM]: the “viral replication / viral infection” value in the data set with HSV-1 is recorded as “inhibited viral replication”. As for `O=c1[nH]c(=O)n([C@H]2C[C@H](O)[C@@H](CO)O2)cc1C(F)(F)F` [TFT, trifluridine], the corneal toxicity entry in data set [2] is “corneal toxicity including inflammation, dryness and pain”. In the case of `O=C([O-])CCCc1ccccc1.[Na+]` [NaPBA, sodium 4-phenylbutanoate], the viral protein synthesis entry in the data set on HSV is given as “suppressed viral protein synthesis”. Consider `C/C=C(/C)C(=O)O[C@H]1C(C)=C2[C@H]([C@@H]1OC(=O)CCCCCCC)[C@@](C)(OC(C)=O)C[C@H](OC(=O)CCC)[C@@]1(O)[C@H]2OC(=O)[C@@]1(C)O` [TG, Thapsigargin], for which, in the data set with HSV-1, the “viral replication / viral infection” value is “inhibited viral replication”. For `O=C(/C=C/c1ccccc1)NC(NC(=S)Nc1cccc2cccnc12)C(Cl)(Cl)Cl` (stereo not drawn) [salubrinal], the “viral replication / viral infection” value with HSV-1 is reported as “increased viral replication”. Besides, in the data set with HSV-1 infected HCEs, the “survival of the HSV-1 infected cell” value was “form large syncytia and survive longer in cell culture; also recorded: increased survival of the cell”.

Values taken from patent publication US20240033236A1, “METHODS OF TREATING HERPES VIRAL INFECTION WITH 4-PHENYLBUTYRATE (PBA) OR A PHARMACEUTICALLY ACCEPTABLE SALT THEREOF” (THE BOARD OF TRUSTEES OF THE UNIVERSITY OF ILLINOIS, priority 2020, published 2024).
